Test results: patent US20260274866A1, “PYRIDO[4,3-D]PYRIMIDINE DERIVATIVES AS MUTANT KRAS G12C INHIBITORS FOR THE TREATMENT OF CANCER” (Frontier Medicines Corporation, priority 2023, published 2026)

Molecular target: T1, KRAS G12C (GMPPNP-loaded) and cRAF (Ras-binding domain) interaction (Homo sapiens, UniProt P01116, C118S/C51S/C80L/G12C)
T1 construct: truncated version comprising amino acids 1-169
Assay: AlphaScreen inhibition of KRAS G12C and cRAF binding
Type: biochemical
Conditions: KRAS G12C preloaded with GTP analogue GMPPNP, 2 hours preincubation
Experimental: The AlphaScreen technology was used to determine IC50s for compound inhibition of KRAS G12C (present as the Cys-light (C51S, C80L and C118S), truncated version comprising amino acids 1-169) and cRAF interaction. Compounds were diluted in 100% DMSO and each compound concentration was spotted at 200 nl/well onto low volume, white 384 well plates. The KRAS G12C contained a biotin-AviTag and the cRaf, as Ras-binding domain (amino acids 50-131, RBD), was GST-tagged. KRAS G12C was preloaded with the GTP analogue Guanosine 5′-[β,γ-imido]triphosphate (GMPPNP). The KRAS G12C was diluted in 25 mM Hepes, pH 7.4, 150 mM NaCl, 5 mM MgCl2, 0.01% TritonX-100 and 10 μM GMPPNP and added at 10 ul/well to compound-spotted plates resulting in a DMSO concentration of 2%. Plates were incubated for 2 hours. A mixture of RBD and the AlphaScreen streptavidin donor and glutathione acceptor beads diluted in 25 mM Hepes, pH 7.4, 150 mM NaCl, 5 mM MgCl2, 0.01% TritonX-100 and 2% DMSO was then added at 10 ul/well and incubated for 60-90 minutes before the samples were read for emission at 570 nm after excitation of the donor beads at 680 nm. All incubations were performed at room temperature. The final top compound concentration was 50 μM with 1:3 titrations for 10-point dose response curves. Final assay conditions were 0.5 nM KRAS G12C, 0.75 nM RBD and 5 ug/ml each of AlphaScreen donor and acceptor beads. IC50s were determined using nonlinear regression fit of [inhibitor] vs. response (4 parameters).
A counter assay was also set up to rule out inhibitors of the AlphaScreen technology itself. Compound plates were incubated for 2 hours as above with buffer only. The AlphaScreen beads were added as above except biotin-AviTag-GST was substituted for the RBD. Samples were read and analyzed as above.

T1 sequence (P01116 1-169 isoform P01116-2 G12C/C51S/C80L/C118S): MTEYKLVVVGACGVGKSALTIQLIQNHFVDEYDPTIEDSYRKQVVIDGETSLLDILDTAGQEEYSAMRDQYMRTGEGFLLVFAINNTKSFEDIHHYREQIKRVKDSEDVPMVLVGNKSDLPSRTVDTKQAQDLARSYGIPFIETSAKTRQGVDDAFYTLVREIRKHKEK

Row | Structure (SMILES) | IC50
1 | C[C@H](/C=C/C(=O)N1CCN(c2nc(OCC34CCCN3CCC4)nc3c2CCN(c2cccc4cccc(Cl)c24)C3)C[C@@H]1CC#N)N(C)C [Compound 4] | < 10 nM
2 | C[C@H](/C=C/C(=O)N1CCN(c2nc(OC[C@@]34CCCN3C[C@H](F)C4)nc3c(F)c(-c4cccc(Cl)c4C4CC4)ncc23)C[C@@H]1CC#N)N(C)C [Compound 44, 2-((S)-4-(7-(3-chloro-2-cyclopropylphenyl)-8-fluoro-2-(((2R,7aS)-2-fluorotetrahydro-1H-pyrrolizin-7a(5H)-yl)methoxy)pyrido[4,3-d]pyrimidin-4-yl)-1-((R,E)-4-(dimethylamino)pent-2-enoyl)piperazin-2-yl)acetonitrile] | 10 to 100 nM
3 | C[C@@H](/C=C/C(=O)N1CCN(c2nc(OCC34CCCN3CCC4)nc3c2CCN(c2cccc4cccc(Cl)c24)C3)C[C@@H]1CC#N)N1CCOCC1 [Compound 22] | 10 to 100 nM
4 | C[C@@H](/C=C/C(=O)N1CCN(c2nc(OC[C@@]34CCCN3C[C@H](F)C4)nc3c(F)c(-c4cccc5cccc(Cl)c45)ncc23)C[C@@H]1CC#N)N1C[C@H]2C[C@@H]1CO2 [Compound 26] | 10 to 100 nM
5 | CC(/C=C/C(=O)N1CCN(c2nc(OC[C@@]34CCCN3C[C@H](F)C4)nc3c(F)c(-c4cccc5cccc(Cl)c45)ncc23)C[C@@H]1CC#N)N1[C@@H]2CC[C@H]1COC2 (stereo partly drawn) [Compound 17] | < 10 nM
6 | CC(/C=C/C(=O)N1CCN(c2nc(OCC34CCCN3CCC4)nc3c2CCN(c2cccc4cccc(Cl)c24)C3)C[C@@H]1CC#N)N1CCOCC1 (stereo partly drawn) [Compound 3] | 10 to 100 nM
7 | C[C@H](/C=C/C(=O)N1CC[C@@H](N(C)c2nc(OC[C@@]34CCCN3C[C@H](F)C4)nc3c(F)c(-c4cccc5cccc(Cl)c45)ncc23)C1)N1CCC1 [Compound 12] | 10 to 100 nM
8 | C[C@@H](/C=C/C(=O)N1CC[C@@H](N(C)c2nc(OC[C@@]34CCCN3C[C@H](F)C4)nc3c(F)c(-c4cccc5ccc(F)c(Cl)c45)ncc23)C1)N(C)C [Compound 18] | ≥ 500 nM
9 | C[C@@H](/C=C/C(=O)N1CCN(c2nc(OC[C@@]34CCCN3C[C@H](F)C4)nc3c(F)c(-c4cccc(Cl)c4C4CC4)ncc23)C[C@@H]1CC#N)N(C)C [Compound 45, 2-((S)-4-(7-(3-chloro-2-cyclopropylphenyl)-8-fluoro-2-(((2R,7aS)-2-fluorotetrahydro-1H-pyrrolizin-7a(5H)-yl)methoxy)pyrido[4,3-d]pyrimidin-4-yl)-1-((S,E)-4-(dimethylamino)pent-2-enoyl)piperazin-2-yl)acetonitrile] | 100 to 500 nM
10 | CC(/C=C/C(=O)N1CCN(c2nc(OC[C@@]34CCCN3C[C@H](F)C4)nc3c(F)c(-c4cccc5cccc(Cl)c45)ncc23)C[C@@H]1CC#N)N1C[C@H]2C[C@@H]1CO2 (stereo partly drawn) [Compound 16] | 10 to 100 nM
11 | C[C@H](/C=C/C(=O)N1C[C@H](F)[C@@H](N(C)c2nc(OC[C@@]34CCCN3C[C@H](F)C4)nc3c(F)c(-c4cccc5cccc(Cl)c45)ncc23)C1)N(C)C [Compound 9] | 10 to 100 nM
12 | C[C@H](/C=C/C(=O)N1CCN(c2nc(OCC34CCCN3CCC4)nc3c2CCN(c2cccc4cccc(Cl)c24)C3)C[C@@H]1CC#N)N1CCOCC1 [Compound 21] | 10 to 100 nM
13 | C[C@@H](/C=C/C(=O)N1CCN(c2nc(OC[C@@]34CCCN3C[C@H](F)C4)nc3c(F)c(-c4cccc5cccc(Cl)c45)ncc23)C[C@@H]1CC#N)N1[C@@H]2CC[C@H]1COC2 [Compound 31, 2-((S)-1-((S,E)-4-((1R,5S)-3-oxa-8-azabicyclo[3.2.1]octan-8-yl)pent-2-enoyl)-4-(7-(8-chloronaphthalen-1-yl)-8-fluoro-2-(((2R,7aS)-2-fluorotetrahydro-1H-pyrrolizin-7a(5H)-yl)methoxy)pyrido[4,3-d]pyrimidin-4-yl)piperazin-2-yl)acetonitrile] | 10 to 100 nM
14 | C[C@H](/C=C/C(=O)N1CCN(c2nc(OC[C@@]34CCCN3C[C@H](F)C4)nc3c(F)c(-c4cccc(Cl)c4C(F)(F)F)ncc23)C[C@@H]1CC#N)N(C)C [Compound 46, 2-((S)-4-(7-(3-chloro-2-(trifluoromethyl)phenyl)-8-fluoro-2-(((2R,7aS)-2-fluorotetrahydro-1H-pyrrolizin-7a(5H)-yl)methoxy)pyrido[4,3-d]pyrimidin-4-yl)-1-((R,E)-4-(dimethylamino)pent-2-enoyl)piperazin-2-yl)acetonitrile] | 10 to 100 nM
15 | C[C@@H](/C=C/C(=O)N1CC[C@@H](N(C)c2nc(OC[C@@]34CCCN3C[C@H](F)C4)nc3c(F)c(-c4cccc5ccc(F)c(F)c45)ncc23)C1)N(C)C [Compound 10, (S,E)-1-((R)-3-((7-(7,8-difluoronaphthalen-1-yl)-8-fluoro-2-(((2R,7aS)-2-fluorotetrahydro-1H-pyrrolizin-7a(5H)-yl)methoxy)pyrido[4,3-d]pyrimidin-4-yl)(methyl)amino)pyrrolidin-1-yl)-4-(dimethylamino)pent-2-en-1-one] | < 10 nM

More lines, now with the values ahead:

Row | IC50 | Structure (SMILES)
16 | 10 to 100 nM | C[C@H](/C=C/C(=O)N1CCN(c2nc(OC[C@@]34CCCN3C[C@H](F)C4)nc3c(F)c(-c4cccc5cccc(Cl)c45)ncc23)C[C@@H]1CC#N)N1CC2CC(C1)O2 [Compound 36]
17 | 10 to 100 nM | CC(/C=C/C(=O)N1CCN(c2nc(OC[C@@]34CCCN3C[C@H](F)C4)nc3c(F)c(-c4cccc5cccc(Cl)c45)ncc23)C[C@@H]1CC#N)N1CC2CC(C1)O2 (stereo partly drawn) [Compound 34]
18 | < 10 nM | CC(/C=C/C(=O)N1CCN(c2nc(OC[C@@]34CCCN3C[C@H](F)C4)nc3c(F)c(-c4cccc5cccc(Cl)c45)ncc23)C[C@@H]1CC#N)N1CC[C@@H](F)C1 (stereo partly drawn) [Compound 29, 2-((2S)-4-(7-(8-chloronaphthalen-1-yl)-8-fluoro-2-(((2R,7aS)-2-fluorotetrahydro-1H-pyrrolizin-7a(5H)-yl)methoxy)pyrido[4,3-d]pyrimidin-4-yl)-1-((E)-4-((R)-3-fluoropyrrolidin-1-yl)pent-2-enoyl)piperazin-2-yl)acetonitrile]
19 | 10 to 100 nM | CC(/C=C/C(=O)N1CCN(c2nc(OC[C@@]34CCCN3C[C@H](F)C4)nc3c(F)c(-c4cccc5cccc(Cl)c45)ncc23)C[C@@H]1CC#N)N1CC2CCC(C1)O2 (stereo partly drawn) [Compound 33]
20 | 10 to 100 nM | CC(/C=C/C(=O)N1CCN(c2nc(OC[C@@]34CCCN3C[C@H](F)C4)nc3c(F)c(-c4cccc5cccc(Cl)c45)ncc23)C[C@@H]1CC#N)N1CC[C@H](F)C1 (stereo partly drawn) [Compound 28]
21 | < 10 nM | CO[C@@H]1CCN(C(C)/C=C/C(=O)N2CCN(c3nc(OC[C@@]45CCCN4C[C@H](F)C5)nc4c(F)c(-c5cccc6ccc(F)c(Cl)c56)ncc34)C[C@@H]2CC#N)C1 (stereo partly drawn) [Compound 14]
22 | 100 to 500 nM | CO[C@@H]1CCN([C@@H](C)/C=C/C(=O)N2CCN(c3nc(OC[C@@]45CCCN4C[C@H](F)C5)nc4c(F)c(-c5cccc6ccc(F)c(Cl)c56)ncc34)C[C@@H]2CC#N)C1 [Compound 39]
23 | 100 to 500 nM | C[C@@H](/C=C/C(=O)N1CCN(c2nc(OC[C@@]34CCCN3C[C@H](F)C4)nc3c(F)c(-c4cccc5cccc(Cl)c45)ncc23)C[C@@H]1CC#N)N1CC2CCC(C1)O2 [Compound 43]
24 | < 10 nM | CO[C@H]1CCN([C@H](C)/C=C/C(=O)N2CCN(c3nc(OC[C@@]45CCCN4C[C@H](F)C5)nc4c(F)c(-c5cccc6ccc(F)c(Cl)c56)ncc34)C[C@@H]2CC#N)C1 [Compound 20, 2-((S)-4-(7-(8-chloro-7-fluoronaphthalen-1-yl)-8-fluoro-2-(((2R,7aS)-2-fluorotetrahydro-1H-pyrrolizin-7a(5H)-yl)methoxy)pyrido[4,3-d]pyrimidin-4-yl)-1-((R,E)-4-((S)-3-methoxypyrrolidin-1-yl)pent-2-enoyl)piperazin-2-yl)acetonitrile]
25 | 10 to 100 nM | C[C@@H](/C=C/C(=O)N1CCN(c2nc(OC[C@@]34CCCN3C[C@H](F)C4)nc3c(F)c(-c4cccc5cccc(Cl)c45)ncc23)C[C@@H]1CC#N)N1C[C@@H]2C[C@H]1CO2 [Compound 41]
26 | 10 to 100 nM | C[C@H](/C=C/C(=O)N1CCN(c2nc(OC[C@@]34CCCN3C[C@H](F)C4)nc3c(F)c(-c4cccc5cccc(Cl)c45)ncc23)C[C@@H]1CC#N)N1C[C@H]2C[C@@H]1CO2 [Compound 25]
27 | 10 to 100 nM | C[C@H](/C=C/C(=O)N1CCN(c2nc(OC[C@@]34CCCN3C[C@H](F)C4)nc3c(F)c(-c4cccc5cccc(Cl)c45)ncc23)C[C@@H]1CC#N)N1CCOCC1 [Compound 23]
28 | 100 to 500 nM | CO[C@@H]1CCN([C@H](C)/C=C/C(=O)N2CCN(c3nc(OC[C@@]45CCCN4C[C@H](F)C5)nc4c(F)c(-c5cccc6ccc(F)c(Cl)c56)ncc34)C[C@@H]2CC#N)C1 [Compound 40]
29 | 10 to 100 nM | CC(/C=C/C(=O)N1CCN(c2nc(OC[C@@]34CCCN3C[C@H](F)C4)nc3c(F)c(-c4cccc5cccc(Cl)c45)ncc23)C[C@@H]1CC#N)N1CCOCC1 (stereo partly drawn) [Compound 11]
30 | < 10 nM | CO[C@H]1CCN(C(C)/C=C/C(=O)N2CCN(c3nc(OC[C@@]45CCCN4C[C@H](F)C5)nc4c(F)c(-c5cccc6ccc(F)c(Cl)c56)ncc34)C[C@@H]2CC#N)C1 (stereo partly drawn) [Compound 13]
